The values below come from PubChem BioAssay (NCI).

Holding throughout (experiment): NCI anticancer screen, dose series, 48 h
Assay [1] deals with MALME-3M melanoma.
Assay [2] concerns SW-620 colon.
Assay [3] relates to RXF 393 renal.
For assay [4], the system named is SR leukemia.
Assay [5] has as its system 786-0 renal.
Assay [6] concerns A498 renal.
Assay [7] deals with OVCAR-3 ovarian.
Assay [8] deals with HCC-2998 colon.
In assay [9] the test system is HOP-62 NSCLC.
The subject of assay [10] is SN12C renal.
For assay [11], the system named is TK-10 renal.
The test system of assay [12] is MDA-N.
In assay [13] the test system is UACC-257 melanoma.
Assay [14] concerns HS 578T breast.
For assay [15], the system named is COLO 205 colon.
Assay [16] concerns SK-MEL-28 melanoma.
For assay [17], the system named is U251 CNS.

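Each compound was tested at five concentrations against cells in 96-well plates for 48 hours. Definition used: TGI = concentration required for complete inhibition of growth.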 Where only a bound is given, the exact number is not on record here.

In the case of `Cc1ccc(Nc2nc(=O)[nH]c(=O)[nH]2)cc1N=[N+]=[N-]`, the TGI in [1], in assay [2], in assay [3], in assay [4], in [5] and in [6] was greater than 100 µM in each case. Besides, the TGI in assay [7], in assay [8], in assay [9], in assay [10], in assay [11] and in assay [12] was greater than 100 µM each time. The TGI in [13], in assay [14] and in assay [15] was greater than 100 µM in each case.

`N#C[C@@]12CCCC(=O)[C@@H]1[C@H]1CCC[C@H]12`: the TGI was 35.3 µM in [16]; 32.3 µM in assay [1]; 45.2 µM in [2]; 59.5 µM in assay [4]; 29.4 µM in assay [5]; 35.5 µM in assay [17]. The TGI in assay [6] came out at 31.5 µM; in assay [7], 23.7 µM; in assay [8] it was 31.7 µM; in assay [9], 30.8 µM; in assay [10], 35.1 µM; in assay [11], 35.3 µM. Also, the TGI in assay [12] was 38.4 µM; in assay [13], 36.2 µM; in [14], greater than 100 µM; in [15], 45.7 µM.

Regarding `CC1(C)C[C@H](O)[C@H](O)[C@]23C(=O)O[C@H](O)[C@H]2C(C=O)=CC[C@@H]13`, the TGI in [16], in [1], in [2], in [3], in [4] and in [5] was greater than 100 µM in each case. Moreover, the TGI in assay [17], in assay [7], in [8], in assay [9], in assay [10] and in [11] was greater than 100 µM in each case. Moreover, the TGI in [12], in [13], in assay [14] and in [15] was greater than 100 µM each time.

With `CC1(C)N=C(/C=N/O)C(C)(C)N1O`, the TGI in assay [16], in [1], in [2], in assay [3], in assay [4] and in [5] was greater than 100 µM in each case. Besides, the TGI in [17], in [6], in [7], in [8], in assay [9] and in [10] was greater than 100 µM throughout. Also, the TGI in assay [11], in [12], in assay [14] and in [15] was greater than 100 µM throughout.

As for `O=C1OC[C@@H]2Cc3c([nH]c4ccccc34)[C@@H](c3cc(O)c(O)c(O)c3)N12`, the TGI was 42.9 µM in assay [16]; 49.7 µM in assay [1]; 53.4 µM in assay [2]; 45.6 µM in assay [3]; 61.9 µM in [4]; 56.1 µM in assay [5]. Moreover, the TGI was 59.8 µM in assay [17]; 48 µM in [6]; greater than 100 µM in assay [8]; 67.8 µM in assay [9]; 98.9 µM in [10]; greater than 100 µM in [11]. For the same molecule, the TGI in assay [12] turned out to be 82.5 µM; in assay [13], 9.73 µM; in [14], 76.2 µM; in assay [15], 42.6 µM.

For `O=C1CCCCC[C@]12SC[C@H]1CON=C12`, the TGI in assay [16] was greater than 100 µM; in [1], greater than 100 µM; in assay [2], greater than 100 µM; in assay [3], 77.1 µM; in [4] it was greater than 100 µM; in [5] it was greater than 100 µM. Also, the TGI in [17] was 42.2 µM; in assay [6], 44.7 µM; in assay [7], greater than 100 µM; in assay [8], greater than 100 µM; in [10], 57.6 µM; in [11] it was greater than 100 µM. Also, the TGI is 32.5 µM in assay [12], greater than 100 µM in [13], greater than 100 µM in assay [14] and greater than 100 µM in assay [15].

Take `COc1cc2c3c(n(Cc4ccccc4)c(=O)c2cc1OC)-c1ccccc1C3=O`: the TGI in assay [16], in [1], in [2], in [3], in assay [4] and in [5] was greater than 100 µM in each case. Further, the TGI in assay [17], in assay [7], in [8], in [9], in assay [10] and in assay [11] was greater than 100 µM in each case. Besides, the TGI in assay [12], in assay [13], in assay [14] and in [15] was greater than 100 µM each time.

Turning to `CCn1c(-c2ccc(C)cc2)cs/c1=N\C(P(=O)(O)O)P(=O)(O)O`, the TGI in assay [16], in [1], in assay [2], in [3], in assay [4] and in [5] was greater than 100 µM in each case. Moreover, the TGI in [17], in [6], in assay [7], in assay [8], in assay [9] and in assay [11] was greater than 100 µM in each case. For the same molecule, the TGI in assay [12], in [13], in [14] and in assay [15] was greater than 100 µM each time.

As to `C/C(=N\O)c1cccc(Nc2nc3ccccc3c3occc23)c1`, the TGI in assay [16] is 29.2 µM; in assay [1], 28.9 µM; in assay [3], 21 µM; in [4], 35.1 µM; in assay [5], 26.7 µM; in assay [17], greater than 100 µM. In addition, the TGI was determined as 29.2 µM in assay [6]; 31.8 µM in assay [7]; 28.9 µM in [8]; 32.8 µM in [9]; 33.6 µM in assay [10]; 27.6 µM in [11]. The TGI in assay [12] came to 27.9 µM; in [13], 2.59 µM; in [14] it was 32.8 µM; in [15] it was 26.4 µM.

`OCCN=C1c2ccccc2C2C(c3ccccc31)C1c3ccccc3C(=NCCO)c3ccccc3C21` (configuration not stated): the TGI was 36.4 µM in assay [16]; 75.7 µM in [1]; greater than 100 µM in assay [2]; 51.8 µM in assay [3]; 28.9 µM in assay [4]; 47.2 µM in assay [5]. Also, the TGI in assay [17] amounted to 41.3 µM; in [7], 40.3 µM; in assay [8], 40.5 µM; in [9], 39.4 µM; in assay [10] it was 55.8 µM; in assay [11], 79.5 µM. Further, the TGI in assay [12] turned out to be 31.3 µM; in assay [13], 69.2 µM; in assay [14] it was 45.7 µM; in [15], 44.4 µM.

As to `COC(OC)(c1ccccc1)C(I)I`, the TGI in assay [16] was 30.7 µM; in assay [1] it was 13.3 µM; in [2], greater than 37.1 µM; in assay [3], 10.4 µM; in [4], greater than 45.7 µM; in assay [5], 21.5 µM. Further, the TGI was 33 µM in assay [17]; 28.7 µM in [7]; greater than 58.3 µM in assay [8]; greater than 58.3 µM in assay [9]; 50.4 µM in [10]; 26.2 µM in assay [11]. The TGI in [12] amounted to 22.6 µM; in assay [13], 8.73 µM; in [14], 62.4 µM; in [15] it was 24.2 µM.

For `COc1ccc(CCc2ccc(O)c(C(=O)O)c2)cc1OC`, the TGI in assay [16], in assay [1], in assay [3], in assay [4], in assay [5] and in assay [17] was greater than 100 µM in each case. Further, the TGI in assay [7], in assay [8], in [9], in assay [10], in assay [11] and in assay [12] was greater than 100 µM throughout. Further, the TGI in [13], in assay [14] and in [15] was greater than 100 µM in each case.

As to `O=C(CN1CCOCC1)CC(O)(C(F)(F)F)C(F)(F)F`, the TGI in [16], in assay [1], in assay [2], in assay [3], in assay [4] and in assay [5] was greater than 100 µM in each case. For the same molecule, the TGI in assay [17], in assay [6], in assay [7], in assay [8], in [11] and in assay [12] was greater than 100 µM throughout. For the same molecule, the TGI in assay [13], in assay [14] and in assay [15] was greater than 100 µM throughout.

Consider `CC(=O)O[C@H]1C(=O)[C@@]2(C)[C@H]([C@H](OC(=O)c3ccccc3)[C@]3(O)C[C@H](OC(=O)[C@H](O)[C@@H](NC(=O)CC(C)C)c4ccccc4)C(C)=C1C3(C)C)[C@]1(OC(C)=O)CO[C@@H]1C[C@@H]2O`, for which the TGI in [16] was greater than 10 µM; in assay [1] it was greater than 10 µM; in assay [2], greater than 10 µM; in assay [4], 0.138 µM; in [5] it was greater than 10 µM; in [17], greater than 10 µM. Further, the TGI is greater than 10 µM in assay [6]; 0.0636 µM in assay [8]; greater than 10 µM in assay [9]; greater than 10 µM in assay [10]; greater than 10 µM in assay [11]; greater than 10 µM in [12]. For the same molecule, the TGI is greater than 10 µM in assay [13], 0.00822 µM in assay [14] and 0.0112 µM in [15].

As for `S=C(c1c[nH]c2ccccc12)N1CCN(c2ccccc2)CC1`, the TGI in [16] is greater than 100 µM; in assay [1], 87.4 µM; in [2] it was greater than 100 µM; in assay [3], greater than 100 µM; in assay [4], greater than 100 µM; in [5], greater than 100 µM. The TGI in assay [17] is 77.8 µM; in [6], greater than 100 µM; in assay [7], greater than 100 µM; in [9], greater than 100 µM; in assay [10], 59.9 µM; in [11] it was greater than 100 µM. The TGI in assay [12] is greater than 100 µM; in assay [13], greater than 100 µM; in assay [14], 38.3 µM; in assay [15] it was greater than 100 µM.

Consider `Cc1ccc([N+](=O)[O-])cc1S(=O)(=O)Nc1ccc(C2=NNC(c3cccs3)C2)cc1` (configuration not stated), for which the TGI in [16] was greater than 100 µM; in [1], greater than 100 µM; in assay [2], greater than 100 µM; in [3] it was 38.7 µM; in [4], 78.8 µM; in [5], greater than 100 µM. In addition, the TGI in assay [6] is 93.1 µM; in assay [7], 43.2 µM; in assay [8], greater than 100 µM; in assay [9], 60.2 µM; in assay [10], 90.6 µM; in [12], greater than 100 µM. Also, the TGI in [13] was greater than 100 µM; in [14] it was greater than 100 µM; in [15], 35.6 µM.

Turning to `Nn1c(SCC(=O)NCc2ccccc2)nc2ccccc2c1=O`, the TGI was greater than 100 µM in assay [16]; greater than 100 µM in assay [1]; greater than 100 µM in [2]; greater than 100 µM in assay [3]; 69 µM in assay [4]; greater than 100 µM in [5]. Also, the TGI in assay [17], in assay [6], in assay [7], in assay [8], in assay [10] and in assay [11] was greater than 100 µM in each case. The TGI in assay [12], in [13], in assay [14] and in assay [15] was greater than 100 µM throughout.
